Reference: patent US4220577A, “Iodopropargyl pyridyl and picolinyl ethers and thioethers as paint fungicides” (Givaudan Corporation, priority 1979, dated 1980)

Columns and labels:
Type in all cases: cell-based
[1] = test system: Aureobasidium pullulans (strain 1); assay: Antifungal activity on painted surfaces, strain 1; set-up: key to Surface Growth: 0: No growth; 1: Slight growth; 2: Moderate growth; 3: Heavy growth; settings: Strain 1, three weeks
Method: (§1) Any antifungal agent which can be used to prevent mildew on painted surfaces must be effective against Aureobasidium pullulans, the organism which is primarily responsible for mildew on painted surfaces. The effectiveness of the novel compounds was tested by incorporating the compound into an exterior latex paint, applying the paint to a surface, and testing the ability of the painted surface to prevent the growth of Aureobasidium pullulans. The tests were run as described below. The novel compounds were incorporated into an exterior vinyl acetate latex paint by mulling the compound into the paint. The compounds were tested in the paints at levels of 0.25% and 0.5%. One coat of this paint was applied to each side of a piece of Whatman #30 filter paper. Two one-inch squares were cut from the filter paper. Each square was centered on the agar surface of separate Petri dishes containing malt agar. One square was inoculated with a suspension of Aureobasidium pullulans (strain 1) which was an in-house strain used for routine antimicrobial testing. The second square was inoculated with a suspension of Aureobasidium pullulans (strain 2) which was grown from a culture obtained from the surface of a mildew infested panel. Squares painted with the same exterior vinyl acetate latex paint, but without the novel compounds of this invention, were run in parallel. The Petri dishes were then incubated at 27° C. and at greater than 90% humidity for a three week period and observed for zones of inhibition and surface growth.

[2] = test system: Aureobasidium pullulans (strain 2); assay: Antifungal activity on painted surfaces, strain 2; set-up: key to Surface Growth: 0: No growth; 1: Slight growth; 2: Moderate growth; 3: Heavy growth; key to Zone of Inhibition: 0: no zone; 1-5 mm; 2: 6-10 mm; 3: 11-15 mm; 4: 16-20 mm; 5: >20 mm; settings: Strain 2, three weeks
Method: as §1

[3] = test system: Aureobasidium pullulans (strain 2); assay: Antifungal activity of painted birch blades after exposure to heat and light; set-up: key to Surface Growth: 0: No growth; 1: Slight growth; 2: Moderate growth; 3: Heavy growth; settings: after light (300-400 nm) and heat (40° C.) four weeks
Method: Successful paint fungicides must be stable when exposed to the elements such as heat and light. Such stability was tested in the laboratory by exposing painted sticks to heat and light. The compounds of this invention were incorporated into an exterior vinyl acetate latex paint as described in Example XXI. Birch blades (tongue depressors) were painted (two coats) and continuously exposed to light (wavelength 300-400 nm) and heat (40° C.) for four consecutive weeks. At the end of the exposure time, one-inch squares of the painted birch blades were cut and tested according to the procedure of Example XXI, using strain 2.

[4] = 0.25% in vinyl acetate latex paint
[5] = 0.5% in vinyl acetate latex paint

Nc1ncccc1OCC#CI [drawing 14]
Surface Growth [1, 4]: 0 | Surface Growth [1, 5]: 0 | Zone of Inhibition [1, 5]: 2 (6-10 mm) | Surface Growth [2, 4]: 0 | Zone of Inhibition [2, 4]: 0 | Surface Growth [2, 5]: 0 | Zone of Inhibition [2, 5]: 0

IC#CCSc1cccnc1 [drawing 15]
Surface Growth [1, 4]: 0 | Zone of Inhibition [1, 4]: 2 (6-10 mm) | Surface Growth [1, 5]: 0 | Zone of Inhibition [1, 5]: 3 (11-15 mm) | Surface Growth [2, 4]: 0 | Zone of Inhibition [2, 4]: 0 | Surface Growth [2, 5]: 0 | Zone of Inhibition [2, 5]: 2 (6-10 mm)

IC#CCOCc1cccnc1 [drawing 16]
Surface Growth [1, 4]: 0 | Zone of Inhibition [1, 4]: 4 (16-20 mm) | Surface Growth [1, 5]: 0 | Zone of Inhibition [1, 5]: 5 (>20 mm) | Surface Growth [2, 4]: 0 | Zone of Inhibition [2, 4]: 3 (11-15 mm) | Surface Growth [2, 5]: 0 | Zone of Inhibition [2, 5]: 4 (16-20 mm)

IC#CCOc1ccncc1 [drawing 17]
Surface Growth [1, 5]: 0 | Zone of Inhibition [1, 5]: 2 (6-10 mm) | Surface Growth [2, 5]: 0 | Zone of Inhibition [2, 5]: 1 (1-5 mm)

IC#CCSc1ccncc1 [drawing 18]
Surface Growth [1, 4]: 0 | Surface Growth [1, 5]: 0 | Zone of Inhibition [1, 5]: 1 (1-5 mm) | Surface Growth [2, 4]: 0 | Zone of Inhibition [2, 4]: 0 | Surface Growth [2, 5]: 0 | Zone of Inhibition [2, 5]: 0

IC#CCOc1cccnc1 [drawing 19]
Surface Growth ([3]; 0.25%): 0 | Surface Growth ([3]; 0.5%): 0 | Zone of Inhibition ([3]; 0.5%): 1 (1-5 mm)

Cc1ccc(OCC#CI)cn1 [drawing 20]
Surface Growth ([3]; 0.25%): 0

Clc1ncccc1OCC#CI [drawing 21]
Surface Growth ([3]; 0.25%): 0

Cc1ccc(OCC#CI)c(Cl)n1 [drawing 22]
Surface Growth ([3]; 0.5%): 0

Nc1ncccc1OCC#CI [drawing 23]
Surface Growth ([3]; 0.25%): 1 | Surface Growth ([3]; 0.5%): 0

IC#CCSc1cccnc1 [drawing 24]
Surface Growth ([3]; 0.25%): 3 | Surface Growth ([3]; 0.5%): 2

IC#CCOCc1cccnc1 [drawing 25]
Surface Growth ([3]; 0.25%): 0 | Surface Growth ([3]; 0.5%): 0 | Zone of Inhibition ([3]; 0.5%): 1 (1-5 mm)

IC#CCOc1ccncc1 [drawing 26]
Surface Growth ([3]; 0.25%): 2 | Surface Growth ([3]; 0.5%): 2

IC#CCOc1ccccc1 [reference compound]
Surface Growth ([3]; 0.25%): 3 | Surface Growth ([3]; 0.5%): 2
